According to patent US20240327456A1, “CANCER THERAPEUTICS” (UNIVERSITAT DE BARCELONA, priority 2021, published 2024):
Square brackets hold non-standard residues; d marks the D form. Peptide text beside a SMILES is read from it. * marks the point of attachment. Chg = N[CH](C(=O)O)C1CCCCC1; X1 = C1CCC2(CC1)CCN(*)CC2; PhAc = O=C(Cc1ccccc1)*

Key:
[1] = Solubility in PBS with 15% β-cyclodextrin; type: physicochemical; details: 1 mM, 24 hours agitation, supernatant by HPLC; mean±SD
Procedure: xxxxx Furthermore, an additional effort was done to reevaluate those peptidomimetics from the first generation that were not soluble in the in vitro assay conditions or formed aggregates as described above when incubated with the RPE cells.
We then put these peptidomimetics under constant agitation for 24 hours. […] Data are expressed as the mean±SD.

[2] = Solubility when diluted in cell medium (in vitro assay conditions); details: cell culture assay conditions

- Conc. in PBS β-cyclodextrin 15% [1]: 844 ± 4 µM
- Solubility when diluted in cell medium [2]: not soluble
SMILES: CC(C)CC(NC(=O)C(Cc1c[nH]c2ccccc12)NC(=O)C(NC(=O)C(CCCCN)NC(=O)Cc1ccccc1)C1CCCCC1)C(=O)N1CCC2(CCCCC2)CC1 (centres unmarked) [IP-14-06] (PhAc-K[Chg]WL-X1; configuration not given here)
